According to patent US12559529B2, “NPY2 receptor agonists” (Boehringer Ingelheim International GmbH, priority 2019, dated 2026):

These compounds were tested against T1, Human Neuropeptide Y2 Receptor (Homo sapiens, UniProt P49146) (assay: Radioligand binding competition assay (RLB)). Conditions: Table 3; human 125I-PYY (1-36) 0.02 nM, Y2 receptor membranes; read-out: Ki.
T1 construct: purchased CHEMICON HTS066M
T1 sequence (P49146 1-381): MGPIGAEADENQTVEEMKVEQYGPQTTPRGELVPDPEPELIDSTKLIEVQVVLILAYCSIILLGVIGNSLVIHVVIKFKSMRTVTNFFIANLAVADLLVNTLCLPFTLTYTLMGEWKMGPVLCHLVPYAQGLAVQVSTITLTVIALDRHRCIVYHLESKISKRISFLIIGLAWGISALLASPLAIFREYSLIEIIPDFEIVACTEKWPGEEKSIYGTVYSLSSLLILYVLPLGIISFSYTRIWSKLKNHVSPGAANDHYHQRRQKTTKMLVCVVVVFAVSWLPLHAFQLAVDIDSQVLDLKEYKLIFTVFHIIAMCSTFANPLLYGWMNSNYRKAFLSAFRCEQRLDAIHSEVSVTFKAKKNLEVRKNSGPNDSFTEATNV
In short: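 Competition binding on human Y2 receptor membranes, 0.5 μg protein/well, in 50 mM HEPES, 5 mM MgCl2, 1 mM CaCl2, pH 7.4, 0.2% ovalbumin; peptides diluted from 1 mM DMSO stocks.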
Work on CC(C)CC(=O)N[C@@H](C)C(=O)N1CCC[C@H]1C(=O)N[C@@H](CCC(=O)O)C(=O)N[C@@H](CCCCNC(=O)COCCOCCNC(=O)COCCOCCNC(=O)CC[C@H](NC(=O)CCCCCCCCCCCCCCCCC(=O)O)C(=O)O)C(=O)N1CCC[C@H]1C(=O)N[C@@H](CCC(=O)O)C(=O)N[C@@H](CCC(=O)O)C(=O)N[C@@H](CC(=O)O)C(=O)N[C@@H](C)C(=O)N[C@@H](CO)C(=O)N1CCC[C@H]1C(=O)N[C@@H](CCC(=O)O)C(=O)N[C@@H](CCC(=O)O)C(=O)N[C@@H](CC(C)C)C(=O)N[C@@H](CCC(N)=O)C(=O)N[C@@H](CCCCN)C(=O)N[C@@H](Cc1ccc(O)cc1)C(=O)N[C@@H](Cc1ccc(O)cc1)C(=O)N[C@H](C(=O)N[C@@H](C)C(=O)N[C@@H](CC(C)C)C(=O)N[C@@H](CCCNC(=N)N)C(=O)N[C@@H](Cc1c[nH]cn1)C(=O)N[C@@H](Cc1ccc(O)cc1)C(=O)N[C@@H](Cc1ccc(O)cc1)C(=O)N[C@@H](CC(N)=O)C(=O)N[C@@H](Cc1c[nH]c2ccccc12)C(=O)N[C@@H](CC(C)C)C(=O)N[C@H](C(=O)N[C@@H](CCCNC(=N)N)C(=O)N[C@@H](CCC(N)=O)C(=O)N[C@@H](CCCNC(=N)N)C(=O)N[C@@H](Cc1ccc(O)cc1)C(N)=O)[C@@H](C)O)C(C)C [Compound 107, N{alpha-4}-(3-methylbutanoyl)-N{epsilon-7}-[2-(2-{2-[2-(2-{2-[(4S)-4-carboxy-4-(17-carboxyheptadecanamido)butanamido]ethoxy}ethoxy)acetamido]ethoxy}ethoxy)acetamido]-[4A,7K,9E,18Q,19K,22V,23A,28Y,30W,31L]hPYY (4-36)] yielded a Ki of 1.1 nM.
Work on CC(C)CC(=O)N[C@@H](C)C(=O)N1CCC[C@H]1C(=O)N[C@@H](CCC(=O)O)C(=O)N[C@@H](CCCCNC(=O)COCCOCCNC(=O)COCCOCCNC(=O)CC[C@H](NC(=O)CCCCCCCCCCCCCCCCC(=O)O)C(=O)O)C(=O)N1CCC[C@H]1C(=O)N[C@@H](CCC(=O)O)C(=O)N[C@@H](CCC(=O)O)C(=O)N[C@@H](C)C(=O)N[C@@H](C)C(=O)N[C@@H](CO)C(=O)N1CCC[C@H]1C(=O)N[C@@H](CCC(=O)O)C(=O)N[C@@H](CCC(=O)O)C(=O)N[C@@H](CC(C)C)C(=O)N[C@@H](CCC(N)=O)C(=O)N[C@@H](CCCNC(=N)N)C(=O)N[C@@H](Cc1ccc(O)cc1)C(=O)N[C@@H](Cc1ccc(O)cc1)C(=O)N[C@H](C(=O)N[C@@H](CO)C(=O)N[C@@H](CC(C)C)C(=O)N[C@@H](CCCNC(=N)N)C(=O)N[C@@H](Cc1c[nH]cn1)C(=O)N[C@@H](Cc1ccc(O)cc1)C(=O)N[C@@H](Cc1ccc(O)cc1)C(=O)N[C@@H](CC(N)=O)C(=O)N[C@@H](Cc1c[nH]c2ccccc12)C(=O)N[C@@H](CC(C)C)C(=O)N[C@H](C(=O)N[C@@H](CCCNC(=N)N)C(=O)N[C@@H](CCC(N)=O)C(=O)N[C@@H](CCCNC(=N)N)C(=O)N[C@@H](Cc1ccc(O)cc1)C(N)=O)[C@@H](C)O)C(C)C [Compound 109, N{alpha-4}-(3-methylbutanoyl)-N{epsilon-7}-[2-(2-{2-[2-(2-{2-[(4S)-4-carboxy-4-(17-carboxyheptadecanamido)butanamido]ethoxy}ethoxy)acetamido]ethoxy}ethoxy)acetamido]-[4A,7K,9E,11A,18Q,22V,28Y,30W,31L]hPYY (4-36)] yielded a Ki of 0.94 nM.
With CC(C)CC(=O)N[C@@H](C)C(=O)N1CCC[C@H]1C(=O)N[C@@H](CCC(=O)O)C(=O)N[C@@H](CCCCNC(=O)COCCOCCNC(=O)COCCOCCNC(=O)CC[C@H](NC(=O)CCCCCCCCCCCCCCCCC(=O)O)C(=O)O)C(=O)N1CCC[C@H]1C(=O)N[C@@H](CCC(=O)O)C(=O)N[C@@H](CCC(=O)O)C(=O)N[C@@H](CC(=O)O)C(=O)N[C@@H](C)C(=O)N[C@@H](CCC(=O)O)C(=O)N1CCC[C@H]1C(=O)N[C@@H](CCC(=O)O)C(=O)N[C@@H](CCC(=O)O)C(=O)N[C@@H](CC(C)C)C(=O)N[C@@H](CCC(N)=O)C(=O)N[C@@H](CCCNC(=N)N)C(=O)N[C@@H](Cc1ccc(O)cc1)C(=O)N[C@@H](Cc1ccc(O)cc1)C(=O)N[C@H](C(=O)N[C@@H](CCC(=O)O)C(=O)N[C@@H](CC(C)C)C(=O)N[C@@H](CCCNC(=N)N)C(=O)N[C@@H](Cc1c[nH]cn1)C(=O)N[C@@H](Cc1ccc(O)cc1)C(=O)N[C@@H](Cc1ccc(O)cc1)C(=O)N[C@@H](CC(N)=O)C(=O)N[C@@H](Cc1c[nH]c2ccccc12)C(=O)N[C@@H](CC(C)C)C(=O)N[C@H](C(=O)N[C@@H](CCCNC(=N)N)C(=O)N[C@@H](CCC(N)=O)C(=O)N[C@@H](CCCNC(=N)N)C(=O)N[C@@H](Cc1ccc(O)cc1)C(N)=O)[C@@H](C)O)C(C)C [Compound 111, N{alpha-4}-(3-methylbutanoyl)-N{epsilon-7}-[2-(2-{2-[2-(2-{2-[(4S)-4-carboxy-4-(17-carboxyheptadecanamido)butanamido]ethoxy}ethoxy)acetamido]ethoxy}ethoxy)acetamido]-[4A,7K,9E,13E,18Q,22V,23E,28Y,30W,31L]hPYY (4-36)] the Ki was 5.43 nM.
CC(C)CC(=O)N[C@@H](C)C(=O)N1CCC[C@H]1C(=O)N[C@@H](CCC(=O)O)C(=O)N[C@@H](CCCCNC(=O)COCCOCCNC(=O)COCCOCCNC(=O)CC[C@H](NC(=O)CCCCCCCCCCCCCCCCC(=O)O)C(=O)O)C(=O)N1CCC[C@H]1C(=O)N[C@@H](CCC(=O)O)C(=O)N[C@@H](CCC(=O)O)C(=O)N[C@@H](CCC(=O)O)C(=O)N[C@@H](C)C(=O)N[C@@H](CO)C(=O)N1CCC[C@H]1C(=O)N[C@@H](CCC(=O)O)C(=O)N[C@@H](CCC(=O)O)C(=O)N[C@@H](CC(C)C)C(=O)N[C@@H](CCC(N)=O)C(=O)N[C@@H](CCCNC(=N)N)C(=O)N[C@@H](Cc1ccc(O)cc1)C(=O)N[C@@H](Cc1ccc(O)cc1)C(=O)N[C@H](C(=O)N[C@H](C(=O)N[C@@H](CC(C)C)C(=O)N[C@@H](CCCNC(=N)N)C(=O)N[C@@H](Cc1c[nH]cn1)C(=O)N[C@@H](Cc1ccc(O)cc1)C(=O)N[C@@H](Cc1ccc(O)cc1)C(=O)N[C@@H](CC(N)=O)C(=O)N[C@@H](Cc1c[nH]c2ccccc12)C(=O)N[C@@H](CC(C)C)C(=O)N[C@H](C(=O)N[C@@H](CCCNC(=N)N)C(=O)N[C@@H](CCC(N)=O)C(=O)N[C@@H](CCCNC(=N)N)C(=O)N[C@@H](Cc1ccc(O)cc1)C(N)=O)[C@@H](C)O)[C@@H](C)O)C(C)C [Compound 119, N{alpha-4}-(3-methylbutanoyl)-N{epsilon-7}-[2-(2-{2-[2-(2-{2-[(4S)-4-carboxy-4-(17-carboxyheptadecanamido)butanamido]ethoxy}ethoxy)acetamido]ethoxy}ethoxy)acetamido]-[4A,7K,9E,11E,18Q,22V,23T,28Y,30W,31L]hPYY (4-36)] showed a Ki of 3.32 nM.
